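Where inhibition never reached the appropriate level, the endpoint shown equals the highest concentration tested. Otherwise, values were interpolated linearly from a five-concentration, 48-hour dose response in 96-well plates. GI50 marks 50% less growth. TGI denotes the concentration required for complete inhibition of growth.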
Assays:
Assay in all cases: DTP human tumour cell line panel, 48 h
EKVX NSCLC = system: EKVX NSCLC
MOLT-4 leukemia = system: MOLT-4 leukemia
MDA-MB-231 breast = system: MDA-MB-231 breast
M14 melanoma = system: M14 melanoma
OVCAR-4 ovarian = system: OVCAR-4 ovarian
OVCAR-8 ovarian = system: OVCAR-8 ovarian
UO-31 renal = system: UO-31 renal
MALME-3M melanoma = system: MALME-3M melanoma
RXF 393 renal = system: RXF 393 renal
SF-539 CNS = system: SF-539 CNS
HOP-92 NSCLC = system: HOP-92 NSCLC
CCRF-CEM leukemia = system: CCRF-CEM leukemia
SN12C renal = system: SN12C renal
SR leukemia = system: SR leukemia
MDA-MB-435 = system: MDA-MB-435
NCI-H23 lung = system: NCI-H23 lung
A549 NSCLC = system: A549 NSCLC
COLO 205 colon = system: COLO 205 colon
K-562 leukemia = system: K-562 leukemia
DU-145 prostate = system: DU-145 prostate
SNB-19 CNS = system: SNB-19 CNS
OVCAR-3 ovarian = system: OVCAR-3 ovarian
RPMI-8226 leukemia = system: RPMI-8226 leukemia
UACC-257 melanoma = system: UACC-257 melanoma
KM12 colon = system: KM12 colon
SK-MEL-28 melanoma = system: SK-MEL-28 melanoma
HL-60(TB) leukemia = system: HL-60(TB) leukemia
SNB-75 CNS = system: SNB-75 CNS
MCF7 breast = system: MCF7 breast
UACC-62 melanoma = system: UACC-62 melanoma
T-47D breast = system: T-47D breast
BT-549 breast = system: BT-549 breast
SK-MEL-2 melanoma = system: SK-MEL-2 melanoma
LOX IMVI melanoma = system: LOX IMVI melanoma
HS 578T breast = system: HS 578T breast
IGROV1 ovarian = system: IGROV1 ovarian
SW-620 colon = system: SW-620 colon
786-0 renal = system: 786-0 renal
PC-3 prostate = system: PC-3 prostate
HT29 colon = system: HT29 colon
OVCAR-5 ovarian = system: OVCAR-5 ovarian
HCC-2998 colon = system: HCC-2998 colon
NCI-H226 lung = system: NCI-H226 lung
U251 CNS = system: U251 CNS
HOP-62 NSCLC = system: HOP-62 NSCLC
HCT-15 colon = system: HCT-15 colon
SF-295 CNS = system: SF-295 CNS
SK-OV-3 ovarian = system: SK-OV-3 ovarian
TK-10 renal = system: TK-10 renal
ACHN renal = system: ACHN renal
A498 renal = system: A498 renal
NCI/ADR-RES ovarian = system: NCI/ADR-RES ovarian
NCI-H522 lung = system: NCI-H522 lung
HCT-116 colon = system: HCT-116 colon
CAKI-1 renal = system: CAKI-1 renal
NCI-H460 lung = system: NCI-H460 lung
SK-MEL-5 melanoma = system: SK-MEL-5 melanoma
SF-268 CNS = system: SF-268 CNS

## COc1cc(NCCCCCN=C(N)N)c2ncccc2c1
EKVX NSCLC
  GI50: 4.79 µM
  TGI: > 50.5 µM
MOLT-4 leukemia
  GI50: 4.53 µM
  TGI: > 74.4 µM
MDA-MB-231 breast
  GI50: 2.65 µM
  TGI: 12.3 µM
M14 melanoma
  GI50: 17.7 µM
  TGI: 54.1 µM
OVCAR-4 ovarian
  GI50: 0.043 µM
  TGI: 0.953 µM
OVCAR-8 ovarian
  GI50: 4.24 µM
  TGI: > 71.7 µM
UO-31 renal
  GI50: > 100 µM
  TGI: > 100 µM
MALME-3M melanoma
  GI50: 1.97 µM
  TGI: 8.92 µM
RXF 393 renal
  GI50: 24.9 µM
  TGI: > 94.7 µM
SF-539 CNS
  GI50: 4.68 µM
  TGI: 19.4 µM
HOP-92 NSCLC
  GI50: 2.69 µM
  TGI: 40.4 µM
CCRF-CEM leukemia
  GI50: 5.1 µM
  TGI: > 74.3 µM
SN12C renal
  GI50: 3.57 µM
  TGI: 13.7 µM
SR leukemia
  GI50: 6.28 µM
  TGI: 40.6 µM
MDA-MB-435
  GI50: 16.7 µM
  TGI: 42.3 µM
NCI-H23 lung
  GI50: 1.74 µM
  TGI: 18.9 µM
A549 NSCLC
  GI50: 30 µM
  TGI: > 100 µM
COLO 205 colon
  GI50: 2.92 µM
  TGI: 9.3 µM
K-562 leukemia
  GI50: 5.16 µM
  TGI: > 88.2 µM
DU-145 prostate
  GI50: 35.1 µM
  TGI: > 100 µM
SNB-19 CNS
  GI50: 5.62 µM
  TGI: 30.3 µM
OVCAR-3 ovarian
  GI50: 0.468 µM
  TGI: 9.03 µM
RPMI-8226 leukemia
  GI50: 5.45 µM
  TGI: 33.5 µM
UACC-257 melanoma
  GI50: 4.38 µM
  TGI: 16.7 µM
KM12 colon
  GI50: 2.04 µM
  TGI: 14.5 µM
SK-MEL-28 melanoma
  GI50: 14.6 µM
  TGI: 38.6 µM
HL-60(TB) leukemia
  GI50: 3.46 µM
  TGI: 15.2 µM
SNB-75 CNS
  GI50: 3.25 µM
  TGI: 16.6 µM
MCF7 breast
  GI50: 0.179 µM
  TGI: 1.11 µM
UACC-62 melanoma
  GI50: 7.2 µM
  TGI: 24 µM
T-47D breast
  GI50: 1.07 µM
  TGI: 6.98 µM
BT-549 breast
  GI50: 5.38 µM
  TGI: 18.5 µM
SK-MEL-2 melanoma
  GI50: 3.31 µM
  TGI: 16.1 µM
LOX IMVI melanoma
  GI50: 8.21 µM
  TGI: > 56.1 µM
HS 578T breast
  GI50: 19 µM
  TGI: > 65.4 µM
IGROV1 ovarian
  GI50: 1.03 µM
  TGI: > 36 µM
SW-620 colon
  GI50: 4.97 µM
  TGI: > 100 µM
786-0 renal
  GI50: 23.8 µM
  TGI: > 100 µM
PC-3 prostate
  GI50: 3.47 µM
  TGI: > 49.6 µM
HT29 colon
  GI50: 5.97 µM
  TGI: > 80.7 µM
OVCAR-5 ovarian
  GI50: 5.73 µM
  TGI: 30 µM
HCC-2998 colon
  GI50: 3.97 µM
  TGI: > 33.9 µM
NCI-H226 lung
  GI50: 16.8 µM
  TGI: > 100 µM
U251 CNS
  GI50: 3.23 µM
  TGI: 25.8 µM
HOP-62 NSCLC
  GI50: 10.1 µM
  TGI: > 93.4 µM
HCT-15 colon
  GI50: 43.9 µM
  TGI: > 100 µM
SF-295 CNS
  GI50: 17.1 µM
  TGI: 97.8 µM
SK-OV-3 ovarian
  GI50: 60 µM
  TGI: > 100 µM
TK-10 renal
  GI50: 3.43 µM
  TGI: 17.1 µM
ACHN renal
  GI50: 41.5 µM
  TGI: > 100 µM
A498 renal
  GI50: 42.5 µM
  TGI: > 100 µM
NCI/ADR-RES ovarian
  GI50: > 100 µM
  TGI: > 100 µM
NCI-H522 lung
  GI50: 0.369 µM
  TGI: 4.85 µM
HCT-116 colon
  GI50: 2.74 µM
  TGI: > 63.5 µM
CAKI-1 renal
  GI50: > 100 µM
  TGI: > 100 µM
NCI-H460 lung
  GI50: 7.09 µM
  TGI: > 57.5 µM
SK-MEL-5 melanoma
  GI50: 2.31 µM
  TGI: 6.86 µM
SF-268 CNS
  GI50: 3.59 µM
  TGI: 22.6 µM
